# Data reported in US20230130103A1, “TARGETED PHARMACOLOGICAL THERAPEUTICS IN UVEAL MELANOMA” (Washington University, priority 2017, published 2023).
# Starred links: 1 amine or outer side, 2 acyl side, 3 side chain; linkers in the order of their positions; H or OH if unused. Positions of bridges follow the written chain, without caps; N, C: chain ends. Non-standard residues stand in square brackets, D forms with d. Residues, ends and D or L forms follow the SMILES beside them. *: point of attachment. Leu(3R-OH,Nα-propionyl) = CCC(=O)N[C@H](C(=O)*)[C@H](O)C(C)C; X1 = CC(C)[C@@H](O[*:3])[C@H](N[*:1])C(=O)[*:2]; X2 = CC(C)[C@H](O[*:3])[C@@H](N[*:1])C(=O)[*:2]; NMeaThr = CN[C@H](C(=O)O)[C@H](C)O; dPhLac = O=C(O)[C@H](O)Cc1ccccc1; NMeA = CN[C@@H](C)C(=O)O; NMeDha = C=C(NC)C(=O)O
# Assays:
# [1] = target: T1, constitutively active Gα13 with the RGS domain of LARG (Homo sapiens, UniProt Q14344, Q226L); test: Split luciferase complementation, Gα interaction with RGS domain of LARG; assay type: cell-based; settings: FIG. 1C
# T1 construct: expressed in transfected cells; host or cells: HEK-293
# T1 sequence (Q14344 1-377 Q226L): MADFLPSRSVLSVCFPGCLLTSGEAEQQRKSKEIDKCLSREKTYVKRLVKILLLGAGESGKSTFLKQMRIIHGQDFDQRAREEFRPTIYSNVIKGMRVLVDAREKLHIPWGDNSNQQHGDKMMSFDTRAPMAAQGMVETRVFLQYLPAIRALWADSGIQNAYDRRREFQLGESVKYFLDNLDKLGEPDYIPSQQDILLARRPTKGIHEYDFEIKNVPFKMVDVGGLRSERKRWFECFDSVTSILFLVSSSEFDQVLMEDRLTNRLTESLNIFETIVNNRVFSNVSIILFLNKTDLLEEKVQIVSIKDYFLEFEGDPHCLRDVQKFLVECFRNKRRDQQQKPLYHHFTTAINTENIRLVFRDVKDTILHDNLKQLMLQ
# Text: (FIG. 1A-1C) depicts the effect of FR on the activity state of Gα subunits as determined by interaction with Gβγ or RGS domains in split luciferase complementation assays. FIG. 1A Effect of FR on interaction of Gβγ2 with the indicated wild type (WT) or mutant constitutively active (Q/L) forms of Gα (q) or Gα13 (13). * p<0.01; ** p<0.05. FIG. 1B Potency of FR as a driver of interaction of Gβγ2 with wild type or mutant constitutively active Gαq. FIG. 1C Potency of FR as inhibitor of interaction of RGS2 with mutant constitutively active (Q/L) Gαq, or interaction of the RGS domain of LARG (LARG-RGS) with mutant constitutively active Gα13. FIG. 1D Potency of FR as inhibitor of signal transduction by constitutively active Gαq or Gα13 detected with an SRE(L) promoter-driven transcriptional reporter. Constitutively active Gαq (Q/L), constitutively active Gαq bearing the indicated FR binding site mutations, and constitutively Gα13 (Q/L) were studied.
# To detect protein-protein interactions, a split luciferase complementation assays was used (23), as employed to study activation state-dependent interaction between Gα subunits and cognate binding partners (24).
# Split luciferase assays were performed as described (24). […]
# [2] = tested on: BRAF(V600E)-driven OCM-1A cells; test: IP1 accumulation in UM cells (IP-One kit); assay type: cell-based, Human; settings: FIG. 3B
# Text: Inhibition of signaling by constitutively active Gαq in UM cultured cell lines was quantified by measuring intracellular inositol 1-phosphate (IP1), a metabolically stable product of inositol 1,4,5-trisphosphate produced by Gαq-stimulated phospholipase Cβ. FIG. 3A Basal IP1 levels in UM cell lines driven by constitutively active Gαq (92.1 and Mel202) and BRAF (OCM-1A). FIG. 3B Effects of FR on IP1 levels in 92.1, Mel202 and OCM-1A cells. *p<0.01.
# A third UM cell line (OCM-1A) driven by constitutively active BRAF(V600E) served as a negative control. Signaling by Gαq-stimulated phospholipase Cβ was quantified based on levels of inositol monophosphate (IP1), a metabolically stable product of inositol 1,4,5-trisphosphate (IP3) produced by cleavage of phosphatidylinositol 4,5-bisphosphate (PIP2). […] FR reduced IP1 levels in Mel202 and 92.1 cells >50-fold (FIG. 3B), but had only modest effect (˜2-fold) on OCM-1A cells (FIG. 3B).
# Accumulation of IP1 in UM cells was measured using the IP-One kit (CiSbio, Inc; catalog number 62IPAPEB) according to the supplier's instructions. 10,000 Mel 202 cells, 20,000 92.1 cells and 20,000 OCM 1A cells were seeded into white-bottom tissue culture grade 384-well plates. Following an overnight incubation, cells were treated with FR or DMSO and returned to the incubator. […] Plates were read in a Synergy H4 Hybred Reader (BioTek, Winooski, Vt., USA). […]
# 92.1 cells [3] = test: YAP-driven transcriptional reporter; assay type: cell-based; settings: Homo sapiens, FIG. 6B, read-out: EC50, increase in expression of YAP-driven transcriptional reporter
# Description: (§1) Expression data from two experimental replicates are mean-centered; the color gradient corresponds to difference in log 2 ratio of expression from the mean, such that 0.5 versus −0.5 is a total difference of 2-fold in unlogged expression.
# (§2) Assays of transcriptional reporters driven by YAP or Gα subunits were performed as described (42, 43). YAP- or Ga-driven firefly luciferase activity was normalized to Renilla luciferase expressed from a constitutive promoter.
# Mel202 cells [4] = test: YAP-driven transcriptional reporter; assay type: cell-based; settings: Homo sapiens, FIG. 6B, read-out: EC50, increase in expression of YAP-driven transcriptional reporter
# Description: as §1, §2
# OCM-1A cells = test: YAP-driven transcriptional reporter; assay type: cell-based, Human; settings: FIG. 6B
# Description: as §1, §2
# 92.1 UM cells = test: RNA-Seq global gene expression, FR vs vehicle; assay type: cell-based, Human; settings: 92.1 cells, 100 nM FR, p<0.001
# Mel202 UM cells = test: UM cell viability, water-soluble tetrazolium salt assay; settings: Homo sapiens, Mel202, read-out: EC50, inhibition of proliferation (viability)
# Description: (§3) Cells were cultured at 37.0 in 5% CO2. […] Cell lines were grown in RPMI 1640 medium (Life Technologies, Carlsbad, Calif.) supplemented with 10% FBS and antibiotics. Cell viability was measured using a water-soluble tetrazolium salt, WTS-8 (Bimake, Houston, Tex.), following the manufacturer's protocol. Flow cytometry for analysis of cell proliferation and apoptosis was performed at the Siteman Cancer Center Flow Cytometry Core on a FACScan analyzer (BD Biosciences, San Diego Calif., USA) using a standard propidium iodide staining protocol as described previously (44).
# Mel202 cells [5] = test: Flow cytometry of DNA content (proliferation and apoptosis); settings: 3 d, FIG. 4C-D
# Description: as §3
# 92.1 cells [6] = test: as above; settings: 3 d, FIG. 4C-D
# Description: as §3
smiles,measurement,setting,value
"C=C1C(=O)N[C@@H](C)C(=O)N(C)[C@@H](C)C(=O)N[C@H]([C@@H](OC(=O)[C@@H](NC(=O)CC)[C@H](O)C(C)C)C(C)C)C(=O)N(C)[C@@H]([C@H](C)OC)C(=O)O[C@H](C(C)C)[C@H](NC(C)=O)C(=O)O[C@H](Cc2ccccc2)C(=O)N1C [FR, [(1S)-1-[(3S,6R,9S,12S,18R,21S,22R)-21-acetamido-18-benzyl-3-[(1S)-1-methoxyethyl]-4,9,10,12,16-pentamethyl-15-methylidene-2,5,8,11,14,17,20-heptaoxo-22-propan-2-yl-1,19-dioxa-4,7,10,13,16-pentazacyclodocos-6-yl]-2-methylpropyl] (2S,3R)-3-hydroxy-4-methyl-2-(propanoylamino)pentanoate] (Ac-[X1][dPhLac][NMeDha]A[NMeA][X2](Leu(3R-OH,Nα-propionyl))[NMeaThr](Me); ester 1-C)",effect on interaction with the RGS domain of LARG,[1],lack of effect
same,effect on IP1 levels,[2],~2 fold
same,EC50,92.1 cells [3],3 nM
same,EC50,Mel202 cells [4],0.8 nM
same,effect on YAP-driven transcriptional reporter,OCM-1A cells,no effect
same,BBC3/PUMA expression decrease,92.1 UM cells,3.5 fold
same,PMAIP1/NOXA expression decrease,92.1 UM cells,2.5 fold
same,"p21CIP1 (CDKN1A) expression, down",92.1 UM cells,3.0 fold
same,EC50,Mel202 UM cells,6 nM
same,apoptosis (sub-G1/G0 cells),Mel202 cells [5],increased levels of sub-G1/G0 cells
same,cell cycle inhibition (decreased levels of S- and G2/M-phase cells),Mel202 cells [5],induced cell cycle inhibition
same,apoptosis (sub-G1/G0 cells),92.1 cells [6],increased levels of sub-G1/G0 cells
same,cell cycle inhibition (decreased levels of S- and G2/M-phase cells),92.1 cells [6],induced cell cycle inhibition
